Measured values reported in patent publication US20100256086A1, “NON-HYDROLYZABLE NUCLEOSIDE DI- OR TRI-PHOSPHATE DERIVATIVES AND USES THEREOF” (priority 2007, published 2010).

Key:
perfused rat pancreas = details: cited from earlier work
[1] = Stability in human blood serum, Method A; format: in vitro ADME; details: human blood serum and RPMI-1640, 37° C.
Experimental: (§1) Preparation of the Human Blood Serum: Blood Taken from Healthy Volunteers was obtained from a blood bank (Tel-Hashomer hospital, Israel), stored for 12 h at 4° C. and centrifuged in plastic tubes at 1500 g for 15 min at room temperature. The serum was separated and stored at −80° C.
The assay mixture, containing a 40 mM nucleotide derivative solution in deionized water (4.5 μl), human blood serum (180 μl) and RPMI-1640 (540 μl), was incubated at 37° C. for 1, 4, 8, 16, 24, 48, 72 and 96 h. The samples were then treated with 0.6 M of hydrochloric acid (430 μl), centrifuged for 2 min (13,000 g, 4° C.), neutralized by addition of 4 M of KOH, centrifuged for 2 min (13,000 g, 4° C.) and freeze-dried. The stability of the nucleotide was evaluated by HPLC for monitoring possible dephosphorylation products. The mixture was separated on a Gemini analytic column (5u C-18 110A, 150×4.60 mm) with gradient elution [0.01 M KH2PO4 pH=4.5 (A)/acetonitrile (B), 100:0→60:40, A:B, 20 min for 2, 3A and 3B; 100:0→95:5, A:B, 10 min for ATP] and flow rate of 1 ml/min. The hydrolysis rate was determined by measuring the change in the integration of the respective HPLC peaks with time.

turkey P2Y1 = target: T1, turkey P2Y1 (Meleagris gallopavo, UniProt P49652); test: Intracellular calcium measurement ([Ca2+]i, fura-2) in 1321N1 astrocytoma cells; format: cell-based; details: for activities at the P2YRs tested: P2Y1, P2Y2, P2Y4 and P2Y6 tested; for EC50: human 1321N1 astrocytoma cells expressing turkey P2Y1, read-out: Compound-induced activation of [Ca2+] EC50, P2Y1
T1 construct: expressed in transfected cells
T1 sequence (P49652 whole entry): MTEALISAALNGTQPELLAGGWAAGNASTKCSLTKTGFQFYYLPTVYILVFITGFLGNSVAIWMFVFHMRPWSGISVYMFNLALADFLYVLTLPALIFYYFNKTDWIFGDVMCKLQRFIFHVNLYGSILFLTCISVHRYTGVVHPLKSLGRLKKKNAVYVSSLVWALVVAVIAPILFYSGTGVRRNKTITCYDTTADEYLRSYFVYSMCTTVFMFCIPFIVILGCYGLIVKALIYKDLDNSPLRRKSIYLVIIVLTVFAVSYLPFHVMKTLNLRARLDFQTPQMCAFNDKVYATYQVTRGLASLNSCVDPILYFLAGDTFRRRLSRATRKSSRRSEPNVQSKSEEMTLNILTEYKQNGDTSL
Experimental: (§2) Human 1321N1 astrocytoma cells stably expressing the turkey P2Y1, human P2Y2, human P2Y4 or rat P2Y6 were grown in Dulbecco's modified Eagle's medium containing 5% (v/v) fetal bovine serum, 100 units/ml penicillin, 100 μg/ml streptomycin and 500 μg/ml Geneticin (G-418, Life Technologies, Inc). Changes in the intracellular free calcium concentration, [Ca^2+]i were detected by dual-excitation spectrofluorometric analysis of cell suspensions loaded with fura-2, as previously described (Garrad et al., 1998; Grynkiewicz et al., 1985). Cells were assayed in 10 mM Hepes-buffered saline (pH 7.4) containing 1 mM CaCl2 and 1 mM MgCl2. The cells were pelleted in a microfuge and resuspended in 2 ml of buffer. Concentration-response data were analyzed with the Prism curve fitting program (GraphPAD Software, San Diego, Calif.). Three experiments were conducted on separate days for each P2Y receptor subtype.
(§3) The activities of compounds 2, 4B, 17, 18, 19A, 21 (isomers A and B) were examined at the G protein-coupled P2YRs, P2Y1, P2Y2, P2Y4 and P2Y6 expressed in human 1321N1 astrocytoma cells, based on intracellular calcium measurements, as described in Experimental above. In particular, the activity of compound 2, 4B and 19 was examined at P2Y1R, P2Y2R, P2Y4R and P2Y6R, and the activity of compounds 17, 18 and 21 was examined at P2Y1R only. The experiments were conducted by Prof. Gary A. Weisman from Columbia-Missouri University, Columbia, Mo., USA.

[2] = cited from earlier work
ecto-nucleotidases = details: muscle strips preparations, 60 min incubation; cited from earlier work
[3] = Stability in human blood serum, Method B; format: in vitro ADME; details: human blood serum and RPMI-1640, 37° C.
Experimental: as §1
The assay mixture, containing a 40 mM nucleotide derivative solution in deionized water (4.5 μl), human blood serum (180 μl) and RPMI-1640 (540 μl), was incubated at 37° C. for 1, 4, 8, 16, 24, 48, 72, 96, 120 and 144 h. The samples were then heated to 80° C. for 30 min, treated with CM Sephadex (1-2 mg) for 2 h, centrifuged for 6 min (12,000 rpm) and extracted with chloroform (2×500 μl). The aqueous layer was freeze-dried. The stability of the nucleotide was evaluated by HPLC for monitoring possible dephosphorylation products. The mixture was separated on a Gemini analytic column (5u C-18 110A, 150×4.60 mm) with gradient elution [100 mM TEAA, pH 7 (A)/MeOH (B), 79:21, A:B, 15 min for 4A and 4B; 100 mM TEAA, pH 7 (A)/acetonitryl (B), A:B, 10 min, 100:0→90:10 A:B 10 min, 90:10→80:20 A:B 4 min, 80:20 A:B 1 min for ATP] and flow rate of 1 ml/min. The hydrolysis rate was determined by measuring the change in the integration of the respective HPLC peaks with time.

human P2Y4 = target: T2, human P2Y4 (Homo sapiens, UniProt P51582); test: Intracellular calcium measurement ([Ca2+]i, fura-2) in 1321N1 astrocytoma cells; format: cell-based; parameters: key to Compound-induced activation of [Ca2+], P2Y4, response class: sr = slight response at 100 μM; nr = no response; details: 1321N1 cells expressing human P2Y4
T2 construct: expressed in transfected cells
T2 sequence (P51582 whole entry): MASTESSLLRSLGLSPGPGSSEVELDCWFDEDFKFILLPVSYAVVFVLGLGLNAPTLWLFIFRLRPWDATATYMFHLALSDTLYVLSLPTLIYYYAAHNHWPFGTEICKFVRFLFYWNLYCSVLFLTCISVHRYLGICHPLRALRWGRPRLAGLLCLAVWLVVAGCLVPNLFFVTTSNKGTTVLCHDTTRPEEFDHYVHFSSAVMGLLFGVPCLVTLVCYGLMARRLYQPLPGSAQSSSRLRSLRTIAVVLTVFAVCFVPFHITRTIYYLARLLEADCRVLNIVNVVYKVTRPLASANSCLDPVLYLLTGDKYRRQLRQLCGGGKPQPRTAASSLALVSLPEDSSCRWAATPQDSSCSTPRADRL
Experimental: as §2, §3

[4] = pKa and degree of ionization of terminal phosphonate/phosphate; format: physicochemical; details: assay conditions, pH 7.4
rat P2Y6 = target: T3, rat P2Y6 (Rattus norvegicus, UniProt Q63371); test: Intracellular calcium measurement ([Ca2+]i, fura-2) in 1321N1 astrocytoma cells; format: cell-based; parameters: key to Compound-induced activation of [Ca2+], P2Y6, response class: sr = slight response at 100 μM; nr = no response; details: for agonistic effect on P2Y6R: at 100 μM
T3 construct: expressed in transfected cells
T3 sequence (Q63371 whole entry): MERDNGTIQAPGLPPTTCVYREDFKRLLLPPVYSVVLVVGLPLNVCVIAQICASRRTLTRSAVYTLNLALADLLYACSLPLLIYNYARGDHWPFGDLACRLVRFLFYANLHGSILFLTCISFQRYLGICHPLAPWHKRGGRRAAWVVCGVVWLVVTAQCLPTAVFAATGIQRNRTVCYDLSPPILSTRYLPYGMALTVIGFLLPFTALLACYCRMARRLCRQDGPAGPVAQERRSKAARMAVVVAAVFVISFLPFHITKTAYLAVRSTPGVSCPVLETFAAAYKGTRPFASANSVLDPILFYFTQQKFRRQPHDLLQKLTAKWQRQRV
Experimental: as §2, §3

human P2Y2 = target: T4, human P2Y2 (Homo sapiens, UniProt P41231); test: as above; format: cell-based; parameters: key to Compound-induced activation of [Ca2+], P2Y2, response class: sr = slight response at 100 μM; nr = no response
T4 construct: expressed in transfected cells
T4 sequence (P41231 whole entry): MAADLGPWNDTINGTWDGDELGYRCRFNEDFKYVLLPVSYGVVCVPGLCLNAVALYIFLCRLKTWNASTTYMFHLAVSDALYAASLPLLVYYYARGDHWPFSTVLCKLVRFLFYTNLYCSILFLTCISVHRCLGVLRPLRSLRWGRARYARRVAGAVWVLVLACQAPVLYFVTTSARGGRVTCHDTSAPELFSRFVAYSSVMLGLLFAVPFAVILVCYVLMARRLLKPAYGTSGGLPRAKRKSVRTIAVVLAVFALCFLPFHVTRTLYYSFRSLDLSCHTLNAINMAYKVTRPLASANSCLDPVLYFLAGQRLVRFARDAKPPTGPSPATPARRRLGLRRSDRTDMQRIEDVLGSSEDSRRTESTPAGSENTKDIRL
Experimental: as §2, §3

[5] = 1321N1 cells expressing rat P2Y6
[6] = 1321N1 cells expressing human P2Y2

2-MeS-ATP-α-B [Compound 1]
enhancement of insulin secretion as compared to basal secretion (perfused rat pancreas): 9 fold | EC50 (perfused rat pancreas; read-out: EC50 of insulin secretion): 28 nM

B[P@](=O)(OC[C@H]1O[C@@H](n2cnc3c(N)ncnc32)[C@H](O)[C@@H]1O)OP(=O)(O)CP(=O)(O)O (single isomer, unassigned) [Compound 3A, Adenosine-β,γ-CH2-5′-O-(1-boranotriphosphate)]
half-life in human blood serum [1]: 14.1 h | activity at P2Y1R, in words (turkey P2Y1): practically inactive | activities at the P2YRs tested (turkey P2Y1): insignificant activities

BP(=O)(OC[C@H]1O[C@@H](n2cnc3c(N)nc(SC)nc32)[C@H](O)[C@@H]1O)OP(=O)(O)C(Cl)(Cl)P(=O)(O)O (single isomer, unassigned) [Compound 21, 2MeS-adenosine-β,γ-CCl2-5′-O-(1-boranotriphosphate)]
pKa value of the terminal phosphonate [2]: about 6.7

BP(=O)(OC[C@H]1O[C@@H](n2cnc3c(N)nc(SC)nc32)[C@H](O)[C@@H]1O)OP(=O)(O)C(Cl)(Cl)P(=O)(O)O (single isomer, unassigned) [Compound 21A, 2MeS-adenosine-β,γ-CCl2-5′-O-(1-boranotriphosphate)]
EC50 (turkey P2Y1): 570 nM

BP(=O)(OC[C@H]1O[C@@H](n2cnc3c(N)nc(SC)nc32)[C@H](O)[C@@H]1O)OP(=O)(O)C(Cl)(Cl)P(=O)(O)O (single isomer, unassigned) [Compound 21B, 2MeS-adenosine-β,γ-CCl2-5′-O-(1-boranotriphosphate)]
EC50 (turkey P2Y1): 1200 nM

Nc1ncnc2c1ncn2[C@@H]1O[C@H](COP(=O)(O)OP(=O)(O)OP(=O)(O)O)[C@@H](O)[C@H]1O [ATP, reference compound]
degradation by ecto-nucleotidases (ecto-nucleotidases): completely dephosphorylated | half-life in human blood serum [1]: 3.6 h | half-life in human blood serum [3]: 7.7 h

CSc1nc(N)c2ncn(C3OC(COP(=O)(O)OP(=O)(O)CP(=O)(O)O)C(O)C3O)c2n1 (stereo not drawn) [Compound 2, β,γ-CH2-2MeS-adenosine-5′-triphosphate]
degradation by ecto-nucleotidases (ecto-nucleotidases): no degradation | Compound-induced activation of [Ca2+], P2Y4, response class (human P2Y4): nr | half-life in human blood serum [1]: 12.7 h | fraction ionized [4]: 9% | Compound-induced activation of [Ca2+], P2Y6, response class (rat P2Y6; [5]): sr | agonistic effect on P2Y6R (rat P2Y6): slight agonistic effect | activity at P2Y2R, in words (human P2Y2): inactivity | Compound-induced activation of [Ca2+], P2Y2, response class (human P2Y2; [6]): nr | EC50 (turkey P2Y1): 80 nM

CSc1nc(N)c2ncn([C@@H]3O[C@H](COP(=O)(O)OP(=O)(O)O)[C@@H](O)[C@H]3O)c2n1 [Compound 2-MeS-ADP, 2-MeS-ADP, reference compound]
fraction ionized [4]: 91%

B[P@](=O)(OC[C@H]1O[C@@H](n2cnc3c(N)nc(SC)nc32)[C@H](O)[C@@H]1O)OP(=O)(O)CP(=O)(O)O [Compound 4A, 2MeS-adenosine-β,γ-CH2-5′-O-(1-boranotriphosphate)]
activity at P2Y2R, in words (human P2Y2): inactivity | activities at the P2YRs tested (turkey P2Y1): insignificant activities

B[P@](=O)(OC[C@H]1O[C@@H](n2cnc3c(N)nc(SC)nc32)[C@H](O)[C@@H]1O)OP(=O)(O)CP(=O)(O)O [Compound 4B, 2MeS-adenosine-β,γ-CH2-5′-O-(1-boranotriphosphate)]
Compound-induced activation of [Ca2+], P2Y4, response class (human P2Y4): nr | Compound-induced activation of [Ca2+], P2Y6, response class (rat P2Y6; [5]): sr | agonistic effect on P2Y6R (rat P2Y6): slight agonistic effect | Compound-induced activation of [Ca2+], P2Y2, response class (human P2Y2; [6]): nr | half-life in human blood serum [3]: 71.9 h | EC50 (turkey P2Y1): 17200 nM

CSc1nc(N)c2ncn([C@@H]3O[C@H](COP(=O)(O)C(Cl)(Cl)P(=O)(O)O)[C@@H](O)[C@H]3O)c2n1 [Compound 17, 2-MeS-adenosine-5′-dichloromethylene-diphosphate]
pKa value of the terminal phosphonate [2]: about 6.7 | EC50 (turkey P2Y1): 3100 nM

CSc1nc(N)c2ncn([C@@H]3O[C@H](COP(=O)(O)C(F)(F)P(=O)(O)O)[C@@H](O)[C@H]3O)c2n1 [Compound 18, 2-MeS-adenosine-5′-difluoromethylene-diphosphate]
pKa value of the terminal phosphonate [2]: about 6.7 | EC50 (turkey P2Y1): 980 nM

O=c1ccn([C@@H]2O[C@H](COP(=O)(O)OP(=O)(O)O)[C@@H](O)[C@H]2O)c(=O)[nH]1 [UDP, reference compound]
EC50 (rat P2Y6; 1321N1 cells expressing rat P2Y6, read-out: Compound-induced activation of [Ca2+] EC50, P2Y6): 200 ± 60 nM

O=c1ccn([C@@H]2O[C@H](COP(=O)(O)OP(=O)(O)OP(=O)(O)O)[C@@H](O)[C@H]2O)c(=O)[nH]1 [UTP, reference compound]
EC50 (human P2Y4; read-out: Compound-induced activation of [Ca2+] EC50, P2Y4): 480 ± 310 nM | EC50 (human P2Y2; 1321N1 cells expressing human P2Y2, read-out: Compound-induced activation of [Ca2+] EC50, P2Y2): 640 ± 250 nM

Nc1ncnc2c1ncn2[C@@H]1O[C@H](COP(=O)(O)OP(=O)(O)CP(=O)(O)O)[C@@H](O)[C@H]1O [β,γ-CH2-ATP]
degradation by ecto-nucleotidases (ecto-nucleotidases): no degradation
